From patent US12643895B2, “Heteroaryl-substituted pyrazolo-pyridine protein kinase inhibitors for promoting liver regeneration or reducing or preventing hepatocyte death” (HepaRegeniX GmbH, priority 2019, dated 2026)

What was measured:
Assay type in all cases: biochemical
MKK4 = molecular target: T1, MKK4 (Homo sapiens, UniProt P45985); experiment: 33PanQinase radiometric kinase assay, MKK4; details: category based on IC50-values; ATP at apparent Km; read-out: Potency MKK4
T1 construct: purchased ProQinase GmbH, Freiburg, Germany (assay service)
T1 sequence (P45985 1-399): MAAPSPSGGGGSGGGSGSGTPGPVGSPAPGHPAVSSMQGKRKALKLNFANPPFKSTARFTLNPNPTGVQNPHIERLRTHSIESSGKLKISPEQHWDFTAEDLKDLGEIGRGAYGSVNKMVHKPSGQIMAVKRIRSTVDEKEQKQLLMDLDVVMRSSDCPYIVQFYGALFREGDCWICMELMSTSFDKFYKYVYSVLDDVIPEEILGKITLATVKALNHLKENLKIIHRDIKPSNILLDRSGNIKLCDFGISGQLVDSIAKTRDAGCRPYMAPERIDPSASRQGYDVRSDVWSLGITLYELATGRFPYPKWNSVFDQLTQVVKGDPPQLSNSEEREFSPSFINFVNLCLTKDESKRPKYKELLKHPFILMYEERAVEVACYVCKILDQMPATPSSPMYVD
Procedure: (§1) The kinase activities of the compounds of the invention were measured using the 33PanQinase® Assay Service provided by ProQinase GmbH, Freiburg, Germany. Details of the assay conditions are disclosed on the website of ProQinase (https://www.proqinase.com/products-services-biochemical-assay-services/kinase-assays). In brief, all kinase assays were performed in 96-well FlashPlates™ from PerkinElmer (Boston, MA, USA) in a 50 μl reaction volume. The reaction cocktail was pipetted in four steps in the following order: • 20 μl of assay buffer (standard buffer) • 5 μl of ATP solution (in H2O) • 5 μl of test compound (in 10% DMSO) • 20 μl enzyme/substrate mix
(§2) The reaction cocktails were incubated at 30° C. for 60 minutes. The reaction is stopped with 50 μl of 2% (v/v) H3PO4, plates were aspirated and washed two times with 200 μl 0.9% (w/v) NaCl. Incorporation of ^33Pi was determined with a microplate scintillation counter (Microbeta, Wallac).
(§3) All assays were performed with a BeckmanCoulter/SAGIAN™ Core System.
(§4) In case of single concentration assays, the potency of the test compound is expressed as % residual activity. […] The fitting method used was a least-squares fit.

BRaf = molecular target: T2, BRaf (Homo sapiens, UniProt P15056); experiment: 33PanQinase radiometric kinase assay, BRaf (off-target); details: ratio IC50(off-target)/IC50(MKK4)
T2 construct: purchased ProQinase GmbH, Freiburg, Germany (assay service)
Procedure: as §1, §2, §3, §4
(§5) Selectivity of test compounds against BRaf, JNK1 and MKK7, altogether denominated as off-targets was calculated by the ratio of IC50 (off-target)/IC50 (MKK4) and categorized as follows: […]

JNK1 = molecular target: T3, JNK1 (Homo sapiens, UniProt P45983); experiment: 33PanQinase radiometric kinase assay, JNK1 (off-target); details: ratio IC50(off-target)/IC50(MKK4)
T3 construct: purchased ProQinase GmbH, Freiburg, Germany (assay service)
Procedure: as §1, §2, §3, §4, §5

MKK7 = molecular target: T4, MKK7 (Homo sapiens, UniProt O14733); experiment: 33PanQinase radiometric kinase assay, MKK7 (off-target); details: ratio IC50(off-target)/IC50(MKK4)
T4 construct: purchased ProQinase GmbH, Freiburg, Germany (assay service)
T4 sequence (O14733 1-419): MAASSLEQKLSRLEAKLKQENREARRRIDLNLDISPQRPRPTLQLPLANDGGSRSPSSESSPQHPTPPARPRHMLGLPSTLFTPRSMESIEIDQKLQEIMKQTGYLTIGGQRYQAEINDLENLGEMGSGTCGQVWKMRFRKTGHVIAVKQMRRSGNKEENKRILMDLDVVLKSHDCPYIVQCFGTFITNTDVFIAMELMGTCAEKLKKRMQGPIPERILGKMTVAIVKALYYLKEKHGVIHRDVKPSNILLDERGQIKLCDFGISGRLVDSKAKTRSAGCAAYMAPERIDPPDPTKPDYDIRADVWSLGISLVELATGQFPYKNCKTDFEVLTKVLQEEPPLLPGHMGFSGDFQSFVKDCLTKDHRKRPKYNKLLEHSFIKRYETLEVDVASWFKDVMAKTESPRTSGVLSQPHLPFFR
Procedure: as §1, §2, §3, §4, §5

T2 sequence (P15056 whole entry): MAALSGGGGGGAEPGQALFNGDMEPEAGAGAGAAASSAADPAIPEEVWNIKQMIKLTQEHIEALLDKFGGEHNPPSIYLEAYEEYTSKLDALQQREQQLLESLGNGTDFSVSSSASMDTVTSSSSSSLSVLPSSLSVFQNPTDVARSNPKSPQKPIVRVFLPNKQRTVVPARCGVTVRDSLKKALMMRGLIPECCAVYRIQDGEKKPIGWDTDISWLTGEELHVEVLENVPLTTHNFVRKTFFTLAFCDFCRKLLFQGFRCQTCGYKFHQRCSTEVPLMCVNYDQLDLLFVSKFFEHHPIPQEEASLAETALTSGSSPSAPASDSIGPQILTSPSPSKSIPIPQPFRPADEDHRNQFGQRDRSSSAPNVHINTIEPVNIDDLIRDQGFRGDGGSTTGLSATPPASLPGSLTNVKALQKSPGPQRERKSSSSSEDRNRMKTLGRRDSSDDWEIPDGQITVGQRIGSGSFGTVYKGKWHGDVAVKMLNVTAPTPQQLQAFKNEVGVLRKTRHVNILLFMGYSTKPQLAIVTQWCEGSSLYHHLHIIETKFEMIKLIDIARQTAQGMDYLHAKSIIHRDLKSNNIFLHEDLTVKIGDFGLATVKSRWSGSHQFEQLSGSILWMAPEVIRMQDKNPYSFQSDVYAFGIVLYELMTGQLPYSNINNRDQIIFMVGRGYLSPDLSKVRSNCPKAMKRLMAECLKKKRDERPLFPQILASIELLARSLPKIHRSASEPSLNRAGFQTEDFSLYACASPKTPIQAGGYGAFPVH
T3 sequence (P45983 whole entry): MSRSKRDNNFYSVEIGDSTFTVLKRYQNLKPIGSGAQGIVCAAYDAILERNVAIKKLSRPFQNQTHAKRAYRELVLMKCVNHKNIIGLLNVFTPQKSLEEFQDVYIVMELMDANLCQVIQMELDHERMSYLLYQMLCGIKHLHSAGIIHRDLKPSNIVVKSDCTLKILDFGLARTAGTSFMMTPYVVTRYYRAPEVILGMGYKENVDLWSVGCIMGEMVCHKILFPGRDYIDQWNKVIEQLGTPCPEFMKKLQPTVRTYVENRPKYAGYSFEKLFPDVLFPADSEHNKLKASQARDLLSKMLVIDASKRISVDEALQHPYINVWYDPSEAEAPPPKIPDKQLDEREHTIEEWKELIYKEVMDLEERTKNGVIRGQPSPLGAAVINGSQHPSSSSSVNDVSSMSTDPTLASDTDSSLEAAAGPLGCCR

SMILES	IC50 (MKK4)	Selectivity Braf (BRaf)	Selectivity JNK1 (JNK1)	Selectivity MKK7 (MKK7)
CCCS(=O)(=O)Nc1c(F)ccc(C(=O)c2n[nH]c3ncc(-c4cnc(C#N)nc4)cc23)c1F [Example 9, N-(3-(5-(2-cyanopyrimidin-5-yl)-1H-pyrazolo[3,4-b]pyridine-3-carbonyl)-2,6-difluorophenyl)propane-1-sulfonamide]	100 to 1000 nM	++ (100 ≥ IC50(off-target)/IC50(MKK4) > 10)	++ (100 ≥ IC50(off-target)/IC50(MKK4) > 10)	++ (100 ≥ IC50(off-target)/IC50(MKK4) > 10)
CCOC(=O)c1ccc(-c2cnc3[nH]nc(C(=O)c4ccc(F)c(NS(C)(=O)=O)c4F)c3c2)cc1 [Example 4, Ethyl 4-(3-(2,4-difluoro-3-(methylsulfonamido)benzoyl)-1H-pyrazolo[3,4-b]pyridin-5-yl)benzoate]	100 to 1000 nM	+++ (IC50(off-target)/IC50(MKK4) > 100)	++ (100 ≥ IC50(off-target)/IC50(MKK4) > 10)	+++ (IC50(off-target)/IC50(MKK4) > 100)
O=C(c1c(F)ccc(NS(=O)(=O)Cc2ccccc2)c1F)c1n[nH]c2ncc(-c3cnc(C4CC4)nc3)cc12 [Example 1, N-(3-(5-(2-cyclopropylpyrimidin-5-yl)-1H-pyrazolo[3,4-b]pyridine-3-carbonyl)-2,4-difluorophenyl)-1-phenylmethanesulfonamide]	100 to 1000 nM	+ (10 ≥ IC50(off-target)/IC50(MKK4) > 3)	◯	+++ (IC50(off-target)/IC50(MKK4) > 100)
COC(=O)c1ccc(-c2cnc3[nH]nc(C(=O)c4ccc(F)c(NS(C)(=O)=O)c4F)c3c2)cn1 [Example 5, Methyl 5-(3-(2,4-difluoro-3-(methylsulfonamido)benzoyl)-1H-pyrazolo[3,4-b]pyridin-5-yl)picolinate]	1000 to 10000 nM	+++ (IC50(off-target)/IC50(MKK4) > 100)	+ (10 ≥ IC50(off-target)/IC50(MKK4) > 3)	++ (100 ≥ IC50(off-target)/IC50(MKK4) > 10)
CCCS(=O)(=O)Nc1c(F)ccc(C(=O)c2n[nH]c3ncc(-c4cncnc4)cc23)c1F [Example 6, N-(2,6-difluoro-3-(5-(pyrimidin-5-yl)-1H-pyrazolo[3,4-b]pyridine-3-carbonyl)phenyl)propane-1-sulfonamide]	100 to 1000 nM	+++ (IC50(off-target)/IC50(MKK4) > 100)	+++ (IC50(off-target)/IC50(MKK4) > 100)	+++ (IC50(off-target)/IC50(MKK4) > 100)
CCCS(=O)(=O)Nc1c(F)ccc(C(=O)c2n[nH]c3ncc(-c4cncnc4C)cc23)c1F [Example 29, N-[2,6-difluoro-3-[5-(4-methylpyrimidin-5-yl)-1H-pyrazolo[3,4-b]pyridine-3-carbonyl]phenyl]propane-1-sulfonamide]	100 to 1000 nM	+++ (IC50(off-target)/IC50(MKK4) > 100)	+++ (IC50(off-target)/IC50(MKK4) > 100)	+++ (IC50(off-target)/IC50(MKK4) > 100)
CCCS(=O)(=O)Nc1c(F)ccc(C(=O)c2n[nH]c3ncc(-c4cnc(C)nc4C)cc23)c1F [Example 30, N-[3-[5-(2,4-dimethylpyrimidin-5-yl)-1H-pyrazolo[3,4-b]pyridine-3-carbonyl]-2,6-difluoro-phenyl]propane-1-sulfonamide]	100 to 1000 nM	+++ (IC50(off-target)/IC50(MKK4) > 100)	+++ (IC50(off-target)/IC50(MKK4) > 100)	+++ (IC50(off-target)/IC50(MKK4) > 100)
CCCS(=O)(=O)Nc1c(F)ccc(C(=O)c2n[nH]c3ncc(-c4cnc(C(C)(C)C)nc4)cc23)c1F [Example 21, N-(3-(5-(2-(tert-butyl)pyrimidin-5-yl)-1H-pyrazolo[3,4-b]pyridine-3-carbonyl)-2,6-difluorophenyl)propane-1-sulfonamide]	< 100 nM	+++ (IC50(off-target)/IC50(MKK4) > 100)	+++ (IC50(off-target)/IC50(MKK4) > 100)	+++ (IC50(off-target)/IC50(MKK4) > 100)
CCCS(=O)(=O)Nc1c(F)ccc(C(=O)c2n[nH]c3ncc(-c4ccc(C(C)(C)C)cc4)cc23)c1F [Example 19, N-(3-(5-(4-(tert-butyl)phenyl)-1H-pyrazolo[3,4-b]pyridine-3-carbonyl)-2,6-difluorophenyl)propane-1-sulfonamide]	100 to 1000 nM	+++ (IC50(off-target)/IC50(MKK4) > 100)	++ (100 ≥ IC50(off-target)/IC50(MKK4) > 10)	+++ (IC50(off-target)/IC50(MKK4) > 100)
CCCS(=O)(=O)Nc1c(F)ccc(C(=O)c2n[nH]c3ncc(-c4ccncc4C)cc23)c1F [Example 18, N-(2,6-difluoro-3-(5-(3-methylpyridin-4-yl)-1H-pyrazolo[3,4-b]pyridine-3-carbonyl)phenyl)propane-1-sulfonamide]	< 100 nM	+++ (IC50(off-target)/IC50(MKK4) > 100)	+++ (IC50(off-target)/IC50(MKK4) > 100)	+++ (IC50(off-target)/IC50(MKK4) > 100)

Second part, the molecule after the results:

IC50 (MKK4)	Selectivity Braf (BRaf)	Selectivity JNK1 (JNK1)	Selectivity MKK7 (MKK7)	SMILES
< 100 nM	+++ (IC50(off-target)/IC50(MKK4) > 100)	+++ (IC50(off-target)/IC50(MKK4) > 100)	+++ (IC50(off-target)/IC50(MKK4) > 100)	CCCS(=O)(=O)Nc1c(F)ccc(C(=O)c2n[nH]c3ncc(-c4ccncc4C#N)cc23)c1F [Example 37, N-[3-[5-(3-cyano-4-pyridyl)-1H-pyrazolo[3,4-b]pyridine-3-carbonyl]-2,6-difluoro-phenyl]propane-1-sulfonamide]
< 100 nM	+++ (IC50(off-target)/IC50(MKK4) > 100)	+++ (IC50(off-target)/IC50(MKK4) > 100)	+++ (IC50(off-target)/IC50(MKK4) > 100)	CCCS(=O)(=O)Nc1c(F)ccc(C(=O)c2n[nH]c3ncc(-c4cnc(OC)nc4OC)cc23)c1F [Example 34, N-[3-[5-(2,4-dimethoxypyrimidin-5-yl)-1H-pyrazolo[3,4-b]pyridine-3-carbonyl]-2,6-difluoro-phenyl]propane-1-sulfonamide]
< 100 nM	+++ (IC50(off-target)/IC50(MKK4) > 100)	+++ (IC50(off-target)/IC50(MKK4) > 100)	+++ (IC50(off-target)/IC50(MKK4) > 100)	CCCS(=O)(=O)Nc1c(F)ccc(C(=O)c2n[nH]c3ncc(-c4ccncc4CC)cc23)c1F [Example 36, N-[3-[5-(3-ethyl-4-pyridyl)-1H-pyrazolo[3,4-b]pyridine-3-carbonyl]-2,6-difluoro-phenyl]propane-1-sulfonamide]
100 to 1000 nM	+++ (IC50(off-target)/IC50(MKK4) > 100)	+++ (IC50(off-target)/IC50(MKK4) > 100)	+++ (IC50(off-target)/IC50(MKK4) > 100)	CCCS(=O)(=O)Nc1c(F)ccc(C(=O)c2n[nH]c3ncc(-c4cnc(C5CC5)nc4SC)cc23)c1F [Example 32, N-(3-(5-(2-cyclopropyl-4-(methylthio)pyrimidin-5-yl)-1H-pyrazolo[3,4-b]pyridine-3 carbonyl)-2,6-difluorophenyl)propane-1-sulfonamide]
< 100 nM	+++ (IC50(off-target)/IC50(MKK4) > 100)	+++ (IC50(off-target)/IC50(MKK4) > 100)	+++ (IC50(off-target)/IC50(MKK4) > 100)	CCCS(=O)(=O)Nc1c(F)cc(F)c(C(=O)c2n[nH]c3ncc(-c4cnc(C5CC5)nc4)cc23)c1F [Example 35, N-(3-(5-(2-cyclopropylpyrimidin-5-yl)-1H-pyrazolo[3,4-b]pyridine-3-carbonyl)-2,4,6-trifluorophenyl)propane-1-sulfonamide]
